Measured values as given in patent US5744479A, “Thienopyridine compounds which have useful pharmaceutical activity” (Takeda Chemical Industries, Ltd., priority 1995, dated 1998).
pIC50: −log10 of the molar value. Counter-ions that a name gives are not always drawn.

The molecules below were run against T1, human GnRH receptor (Homo sapiens, UniProt P30968) (assay: Inhibition of ^125 I-leuprorelin binding to membrane fraction of CHO cells expressing human GnRH receptors). Conditions: CHO cell membrane fraction, 25° C., 60 minutes, concentration of PMB=50% by Hill plot, read-out: IC50 value human GnRH receptor (^125 I-leuprorelin binding inhibitory rate).
T1 construct: expressed in transfected cells; host or cells: CHO (Chinese Hamster Ovary) cells, membrane fraction
T1 sequence (P30968 1-328): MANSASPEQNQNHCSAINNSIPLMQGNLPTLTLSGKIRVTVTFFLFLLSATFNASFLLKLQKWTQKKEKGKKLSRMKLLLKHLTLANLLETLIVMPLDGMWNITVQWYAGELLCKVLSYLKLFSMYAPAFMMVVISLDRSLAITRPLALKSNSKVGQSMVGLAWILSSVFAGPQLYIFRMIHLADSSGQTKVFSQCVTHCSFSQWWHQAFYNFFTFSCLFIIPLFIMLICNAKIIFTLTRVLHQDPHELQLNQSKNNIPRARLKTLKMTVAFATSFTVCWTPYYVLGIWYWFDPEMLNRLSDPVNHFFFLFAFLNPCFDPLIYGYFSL

Compared with CC(C)C(=O)Nc1ccc(-c2sc3c(c2CN(C)Cc2ccccc2)c(=O)c(OS(=O)(=O)C(C)C)cn3Cc2c(F)cccc2F)cc1 [Example 10, 4,7-dihydro-2-(4-isobutyrylaminophenyl)-3-(N-benzyl-N-methylaminomethyl)-5-isopropylsulfonyloxy-7-(2,6-difluorobenzyl)-4-oxothieno[2,3-b]pyridine hydrochloride], CC(C)Oc1cn(Cc2c(F)cccc2F)c2sc(-c3ccc(NC(=O)C(C)C)cc3)c(CN(C)Cc3ccccc3)c2c1=O [Example 8(4), 4,7-dihydro-2-(4-isobutyrylaminophenyl)-3-(N-benzyl-N-methylaminomethyl)-5-isopropoxy-7-(2,6-difluorobenzyl)-4-oxothieno[2,3-b]pyridine] is 0.52 log units lower in pIC50: 9.52 for the first, 9.00 for the second. The first is the more potent here.

CCOC(=O)COc1cn(Cc2c(F)cccc2F)c2sc(-c3ccc(NC(=O)C(C)C)cc3)c(CN(C)Cc3ccccc3)c2c1=O [Example 12, 4,7-dihydro-2-(4-isobutyrylaminophenyl)-3-(N-benzyl-N-methylaminomethyl)-5-ethoxycarbonylmethoxy-7-(2,6-difluorobenzyl)-4-oxothieno[2,3-b]pyridine] and CC(C)C(=O)Nc1ccc(-c2sc3c(c2CN(C)Cc2ccccc2)c(=O)c(OC(=O)C(C)C)cn3Cc2c(F)cccc2F)cc1 [Example 11, 4,7-dihydro-2-(4-isobutyrylaminophenyl)-3-(N-benzyl-N-methylaminomethyl)-5-isobutyryloxy-7-(2,6-difluorobenzyl)-4-oxothieno[2,3-b]pyridine hydrochloride] are within 0.2 log units of each other in pIC50: 8.52 for the first, 8.70 for the second.
